Measurements: EP3807270B1, “NOVEL HETEROARYL HETEROCYCLYL COMPOUNDS FOR THE TREATMENT OF AUTOIMMUNE DISEASE” (F. Hoffmann-La Roche AG, priority 2018, dated 2019)

Assays:
[1] = Human microsome stability assay; assay type: in vitro ADME; settings: 1 µM test compound, 0.5 mg/mL liver microsomal protein, 37 °C
In short: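 Test compound at 1 µM was incubated with human liver microsomes (0.5 mg/mL protein) and an NADPH-regenerating system in 100 mM potassium phosphate, pH 7.4, at 37 °C. Samples were taken at 0–30 min and quenched with acetonitrile. Remaining compound was quantified by LC-MS/MS, with no-NADPH controls.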

hTLR9 = target: T1, hTLR9 (Homo sapiens, UniProt Q9NR96); assay: HEK293-Blue-hTLR-9 cells assay (SEAP reporter, ODN2006 stimulation); assay type: cell-based; set-up: host or cells: HEK293 (HEK-Blue); settings: HEK293-Blue-hTLR9 cells, ODN2006, 20 hrs; read-out: HEK/hTLR9 IC50
T1 sequence (Q9NR96 26-1032): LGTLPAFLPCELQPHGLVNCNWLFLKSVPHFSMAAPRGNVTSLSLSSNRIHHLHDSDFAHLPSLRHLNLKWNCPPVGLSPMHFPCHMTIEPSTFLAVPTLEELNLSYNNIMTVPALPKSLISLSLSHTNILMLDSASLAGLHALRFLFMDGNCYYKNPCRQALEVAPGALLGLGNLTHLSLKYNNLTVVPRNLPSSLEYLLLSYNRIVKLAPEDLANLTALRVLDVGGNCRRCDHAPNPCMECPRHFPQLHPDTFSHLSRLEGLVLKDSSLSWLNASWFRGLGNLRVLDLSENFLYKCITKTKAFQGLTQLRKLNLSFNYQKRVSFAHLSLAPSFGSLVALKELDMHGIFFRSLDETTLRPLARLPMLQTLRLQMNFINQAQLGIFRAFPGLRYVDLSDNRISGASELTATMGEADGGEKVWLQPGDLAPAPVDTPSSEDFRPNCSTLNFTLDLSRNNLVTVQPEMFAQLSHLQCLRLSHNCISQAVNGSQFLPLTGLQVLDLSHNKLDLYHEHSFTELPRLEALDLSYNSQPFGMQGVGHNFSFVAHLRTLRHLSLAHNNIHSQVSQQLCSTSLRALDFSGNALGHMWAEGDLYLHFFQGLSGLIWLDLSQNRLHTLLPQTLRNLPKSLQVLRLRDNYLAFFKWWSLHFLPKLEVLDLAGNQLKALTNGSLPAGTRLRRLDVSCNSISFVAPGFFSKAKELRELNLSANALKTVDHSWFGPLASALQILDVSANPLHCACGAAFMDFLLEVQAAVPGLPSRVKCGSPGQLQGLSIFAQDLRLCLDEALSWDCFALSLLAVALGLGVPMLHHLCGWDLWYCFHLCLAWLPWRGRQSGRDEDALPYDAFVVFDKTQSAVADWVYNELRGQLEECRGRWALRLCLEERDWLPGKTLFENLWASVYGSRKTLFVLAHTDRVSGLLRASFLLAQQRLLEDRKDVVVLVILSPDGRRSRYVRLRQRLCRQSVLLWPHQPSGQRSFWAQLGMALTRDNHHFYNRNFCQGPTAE
In short: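 HEK293-Blue-hTLR9 cells (250,000-450,000 cells/mL) in DMEM with 10% FBS were treated with serially diluted compound (1% DMSO final) plus ODN2006 for 20 hrs at 37 °C. Supernatant SEAP activity was measured with QUANTI-Blue substrate for 2 hrs at 37 °C, reading absorbance at 620-655 nm.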

SMILES	Clearance of Human microsome [1]	IC50 (hTLR9)
[2H]c1ccc2c(N3C[C@H](CN4CCN(c5ccc6c(n5)CN[C@H]6C)CC4)O[C@H](C)C3)ccc(C#N)c2n1 (single isomer, unassigned) [Example 99]	0.379 L/h/kg	0.069 µM
[2H]c1nc2c(C#N)ccc(N3C[C@H](CN4CCN(c5cc6c(cn5)[C@H](C)NCC6)CC4)O[C@H](C)C3)c2nc1[2H] (single isomer, unassigned) [Example 94]		0.071 µM
C[C@@H]1CN(c2ccc(C#N)c3ncccc23)C[C@H](CN2CCN(c3ccc4c(c3)CNCC4)CC2)O1 [Example 9, 5-[(2R,6S)-2-methyl-6-[[4-(1,2,3,4-tetrahydroisoquinolin-7-yl)piperazin-1-yl]methyl]morpholin-4-yl]quinoline-8-carbonitrile]	0.404 L/h/kg	0.077 µM
[2H]c1nc2c(C#N)ccc(N3C[C@H](CN4CCN(c5cc6c(cn5)[C@@H](C)NCC6)CC4)O[C@H](C)C3)c2nc1[2H] (single isomer, unassigned) [Example 95]	0.428 L/h/kg	0.103 µM
C[C@@H]1CN(c2ccc(C#N)c3nccnc23)C[C@H](CN2CCN(c3cc4c(cn3)CCN[C@@H]4C)CC2)O1 (single isomer, unassigned) [Example 87]	0.535 L/h/kg	0.097 µM
[2H]c1nc2c(C#N)ccc(N3C[C@H](CN4CCN(c5ccc6c(n5)CN[C@@H]6C)CC4)O[C@H](C)C3)c2nc1[2H] (single isomer, unassigned) [Example 97]	0.369 L/h/kg	0.11 µM
C[C@@H]1CN(c2ccc(C#N)c3nccnc23)C[C@H](CN2CCN(c3cc4c(cn3)CCN[C@H]4C)CC2)O1 (single isomer, unassigned) [Example 88]		0.073 µM

Further compounds by falling IC50 (hTLR9), results first:

Clearance of Human microsome [1]	IC50 (hTLR9)	SMILES
0.461 L/h/kg	0.117 µM	C[C@@H]1CN(c2ccc(C#N)c3nccnc23)C[C@H](CN2CCN(c3cc4c(cn3)[C@@H](C)NCC4)CC2)O1 (single isomer, unassigned) [Example 86]
0.374 L/h/kg	0.116 µM	[2H]c1nc2c(C#N)ccc(N3C[C@H](CN4CCN(c5ccc6c(n5)CN[C@H]6C)CC4)O[C@H](C)C3)c2nc1[2H] (single isomer, unassigned) [Example 96]
0.481 L/h/kg	0.091 µM	[2H]c1ccc2c(N3C[C@H](CN4CCN(c5ccc6c(n5)CN[C@@H]6C)CC4)O[C@H](C)C3)ccc(C#N)c2n1 (single isomer, unassigned) [Example 98]
0.517 L/h/kg	0.053 µM	C[C@@H]1CN(c2ccc(C#N)c3ncccc23)C[C@H](CN2CCN(c3cnc4c(c3)CNC4)CC2)O1 [Example 10, 5-[(2S,6R)-2-[[4-(6,7-dihydro-5H-pyrrolo[3,4-b]pyridin-3-yl)piperazin-1-yl]methyl]-6-methyl-morpholin-4-yl] quinoline-8-carbonitrile]
